6 compounds from patent publication US8071555B2, “Protective skin care peptides” (Helix BioMedix Inc., priority 2007, dated 2011) can be followed below.

Series [1] deals with trypsin. The experiment in a line: Peptide degradation by trypsin with or without protease inhibitor (LC/MS). It is filed as in vitro ADME. The following applies: for Survival: Trypsin 25 μg/mL, peptide 1 mg/mL. How it is done:
(§1) Peptides of synthetic origin and LL-37 were used in the protease processing experiments at a concentration of 1-2 mg/mL in 0.5M MOPS pH 8.5/0.5M NaCl final buffer concentration. Proteases were used at a concentration of 0.020-0.050 mg/mL.
(§2) Experiments were run in pairs, one with protease inhibitor and one without a protease inhibitor. Liquid chromatography/mass spectrometry (LC/MS) spectra were collected at approximately 1-minute, 1-hour, 4-hour and 24-hour time points from the time of adding protease to the peptide (time zero). LC/MS spectra were collected using a standard reverse phase gradient starting at 5% acetonitrile and ramping up to 65% acetonitrile in 25 minutes.
(§3) The proteases employed in the study were initially dissolved in a 1M NaCl solution, while the peptides were dissolved in 1M MOPS buffer at pH 8.5. The solutions were equilibrated to 37° C. and then mixed at a ratio of 1:1 to start each experiment. Lower buffer concentrations were also used (0.1M MOPS pH 8.5 and 0.2M NaCl). Protease inhibitors were tested at several different concentrations (low and high from 0.02 mg/mL to 40 mg/mL) against a given protease.
(§4) The mass spectrometer used in these studies has a limit of detection below which the specific molecular weight of a molecule cannot be identified from the TIC trace. In these below-detection situations, it was assumed that the tested peptide was completely degraded.
(§5) A series of experiments were performed employing the above-described methodology to determine the utility of the invention as it regards a wider range of proteases, peptides and protease inhibitors. If, at any specific time-point, there was no detectable parent peptide (i.e., the absence of non-degraded peptide), then that time-point was documented as the time required for peptide degradation.

Series [2] addresses T1, chymotrypsin (Bos taurus, UniProt P00766).
T1 construct: purchased Sigma-Aldrich
In words: Peptide degradation by chymotrypsin with or without protease inhibitor (LC/MS). It is filed as in vitro ADME. The following applies: peptide 1 mg/mL. As to the method: as §1, §2, §3, §4, §5

For series [3], the target named is T2, plasmin (Homo sapiens, UniProt P00747).
T2 construct: purchased Sigma-Aldrich
In words: Peptide degradation by plasmin with or without protease inhibitor (LC/MS). The format is in vitro ADME. As to conditions: for Survival: peptide 1 mg/mL. How it is done:
as §1, §2, §3, §4, §5

Series [4] has as its system elastase. In words: Peptide degradation by elastase with or without protease inhibitor (LC/MS). The following applies: Elastase 25 μg/mL, peptide 1 mg/mL. It is filed as in vitro ADME. How it is done: as §1, §2, §3, §4, §5
Series [5] has as its system kallikrein. In words: Peptide degradation by kallikrein with or without protease inhibitor (LC/MS). The format is in vitro ADME. As to conditions: Kallikrein 25 μg/mL, peptide 1 mg/mL. How it is done: as §1, §2, §3
The mass spectrometer used in these studies has a limit of detection below which the specific molecular weight of a molecule cannot be identified from the TIC trace. In these below-detection situations, it was assumed that the tested peptide was completely degraded. […]

The test system of series [6] is MMP-1 expression. The experiment in a line: UVA-induced MMP-1 expression in human skin fibroblasts (ELISA). It is filed as cell-based. The following applies: UVA 500 μW/cm^2, peptide 10 μg/mL. How it is done:
(§6) Human skin epithelial cells (ATCC CRL-2592), keratinocytes (ATCC CRL-2404) and skin fibroblasts (ATCC CRL-7481) were employed in the study. Cells were seeded into 6-well plates and allowed to grow to >95% confluence in Dulbecco's modified Eagle's medium (DMEM; 4 mM L-glutamine, 4.5 g/L glucose) adjusted to contain 1.5 g/L sodium bicarbonate and supplemented with 10% fetal bovine serum (FBS). For keratinocytes, cells were grown in keratinocyte growth media (without serum) supplemented with 5 ng/mL human recombinant epithelial growth factor (EGF; Invitrogen, Grand Island, N.Y.). After the cell monolayer reached >95% confluence, the cells were serum-starved or EGF-starved for 24 hours in complete medium without serum. UVA or UVB was generated using a UVLMS lamp (4-W model, 3UV assembly; Upland, Calif.) with the irradiation wavelength set at 365 or 302 nm, respectively. The UV lamp was placed 15 cm above the tissue culture plate. Before UV treatment, the tissue culture media was replaced with PBS, after which the cells were placed under the UVB lamp (450 μW/cm^2, measured using a radiometer) for 35 seconds (epithelial cells and fibroblasts) or 25 seconds (keratinocytes). […] IL-6 and MMP-1 levels in the media were measured, respectively, using human IL-6 (DIACLONE, Stamford, Conn.) and MMP-1 (Calbiochem, San Diego, Calif.) ELISA kits according to manufacturers' instructions. […]

Series [7] has as its system IL-6 expression. In words: UVB-induced IL-6 expression in human skin epithelial cells (ELISA). The format is cell-based. The following applies: for reduction of IL-6 levels: skin epithelial cells treated with UVB; for repression of UVB-induced IL-6 expression: skin epithelial cells, peptide 40 μg/mL, 24 hours post UVB. As to the method: (§7) Human skin epithelial cells (ATCC CRL-2592), keratinocytes (ATCC CRL-2404) and skin fibroblasts (ATCC CRL-7481) were employed in the study. Cells were seeded into 6-well plates and allowed to grow to >95% confluence in Dulbecco's modified Eagle's medium (DMEM; 4 mM L-glutamine, 4.5 g/L glucose) adjusted to contain 1.5 g/L sodium bicarbonate and supplemented with 10% fetal bovine serum (FBS). For keratinocytes, cells were grown in keratinocyte growth media (without serum) supplemented with 5 ng/mL human recombinant epithelial growth factor (EGF; Invitrogen, Grand Island, N.Y.). After the cell monolayer reached >95% confluence, the cells were serum-starved or EGF-starved for 24 hours in complete medium without serum. UVA or UVB was generated using a UVLMS lamp (4-W model, 3UV assembly; Upland, Calif.) with the irradiation wavelength set at 365 or 302 nm, respectively. The UV lamp was placed 15 cm above the tissue culture plate. Before UV treatment, the tissue culture media was replaced with PBS, after which the cells were placed under the UVB lamp (450 μW/cm^2, measured using a radiometer) for 35 seconds (epithelial cells and fibroblasts) or 25 seconds (keratinocytes). UVA treatment was conducted (500 μW/cm^2) for 30 seconds with fibroblasts. After UV treatment, PBS was immediately replaced with complete medium (without serum or EGF) containing either no peptide or peptide at a specified concentration, and the plates were incubated at 37° C., 5% CO2 for 15-24 hours. The cell media was then collected and spun down at 15000 rpm for 2 minutes to remove cell debris. IL-6 and MMP-1 levels in the media were measured, respectively, using human IL-6 (DIACLONE, Stamford, Conn.) and MMP-1 (Calbiochem, San Diego, Calif.) ELISA kits according to manufacturers' instructions. These measurements served as indicators of cell inflammatory activity in response to UV exposure.
All the tetrapeptides listed in Table I were subjected to a screening test at 40 μg/mL for potential down-regulation of this response (data not shown).
P1422 (SEQ ID NO:1) reduced IL-6 levels by 19% and 25% at 10 and 20 μg/mL, respectively; and P1423 (SEQ ID NO:2) reduced IL-6 levels by 10% and 20% at 10 and 20 μg/mL, respectively.

The subject of series [8] is MMP-1 expression. The experiment in a line: MMP-1 induction in fibroblasts incubated in media conditioned by UVB-treated keratinocytes (ELISA). The format is cell-based, human. The following applies: peptide 10 μg/mL. As to the method: as §6
Series [9] deals with IL-6 expression. In words: UVB-induced IL-6 expression in human skin fibroblasts (ELISA). The format is cell-based. As to conditions: human fibroblasts after UVB. As to the method: as §7
Such peptide-mediated IL-6 down-regulation was also evident in human fibroblasts after exposure to UVB.

Series [10] concerns IL-6 expression. In words: UVB-induced IL-6 expression in human keratinocytes (ELISA). The format is cell-based. The following applies: UVB-treated human keratinocytes; peptide 10 μg/mL. How it is done:
as §6

Several values for one entry are separate records, joined by “and”; a condition that tells them apart may be missing. Equal values may be shown once. Ends that are not written are not given here. Peptide text beside a SMILES is read from it. * marks the point of attachment. Decanoyl = CCCCCCCCCC(=O)*

T2 sequence (P00747 581-810 limits assumed, species assumed): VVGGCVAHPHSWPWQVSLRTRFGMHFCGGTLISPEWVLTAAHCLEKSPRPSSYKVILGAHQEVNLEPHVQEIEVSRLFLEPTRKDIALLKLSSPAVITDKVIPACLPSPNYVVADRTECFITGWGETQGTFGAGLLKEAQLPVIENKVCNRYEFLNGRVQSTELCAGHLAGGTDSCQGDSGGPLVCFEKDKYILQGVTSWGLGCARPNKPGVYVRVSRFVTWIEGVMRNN
T2 sequence (P00747 97-580 limits assumed, species assumed): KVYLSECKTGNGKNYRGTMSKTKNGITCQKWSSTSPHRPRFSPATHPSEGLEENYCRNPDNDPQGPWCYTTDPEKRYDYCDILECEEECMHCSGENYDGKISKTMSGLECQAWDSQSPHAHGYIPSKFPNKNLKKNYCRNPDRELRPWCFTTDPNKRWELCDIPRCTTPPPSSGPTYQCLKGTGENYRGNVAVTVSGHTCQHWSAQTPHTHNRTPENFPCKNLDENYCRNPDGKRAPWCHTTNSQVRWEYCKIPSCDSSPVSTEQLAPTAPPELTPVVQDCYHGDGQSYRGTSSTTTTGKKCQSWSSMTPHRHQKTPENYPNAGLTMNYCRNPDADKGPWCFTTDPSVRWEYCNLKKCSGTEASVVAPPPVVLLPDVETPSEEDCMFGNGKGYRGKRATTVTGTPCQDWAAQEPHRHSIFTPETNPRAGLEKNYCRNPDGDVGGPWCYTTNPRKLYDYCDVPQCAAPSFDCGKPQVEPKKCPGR

As for `CCCCCCCCCC(=O)N[C@@H](CCCCN)C(=O)N[C@@H](Cc1ccccc1)C(=O)N[C@@H](CCCCN)C(=O)N[C@@H](Cc1c[nH]c2ccccc12)C(=O)N1CCC[C@H]1C(=O)N[C@@H](Cc1c[nH]c2ccccc12)C(N)=O` [HB1345, decanoyl-KFKWPW-NH2] (Decanoyl-KFKWPW-NH2), the Survival in series [1] (aprotinin 0.02 mg/mL) is >24 h; in series [1] (no protease inhibitor) it was <1 h.

Take `CC[C@H](C)[C@H](NC(=O)[C@H](CCCCN)NC(=O)[C@H](CCC(=O)O)NC(=O)[C@H](CCCCN)NC(=O)[C@H](CO)NC(=O)[C@H](CCCCN)NC(=O)[C@H](CCCNC(=N)N)NC(=O)[C@H](Cc1ccccc1)NC(=O)[C@H](Cc1ccccc1)NC(=O)[C@H](CC(=O)O)NC(=O)CNC(=O)[C@H](CC(C)C)NC(=O)[C@@H](N)CC(C)C)C(=O)NCC(=O)N[C@@H](CCCCN)C(=O)N[C@@H](CCC(=O)O)C(=O)N[C@@H](Cc1ccccc1)C(=O)N[C@@H](CCCCN)C(=O)N[C@@H](CCCNC(=N)N)C(=O)N[C@H](C(=O)N[C@H](C(=O)N[C@@H](CCC(N)=O)C(=O)N[C@@H](CCCNC(=N)N)C(=O)N[C@H](C(=O)N[C@@H](CCCCN)C(=O)N[C@@H](CC(=O)O)C(=O)N[C@@H](Cc1ccccc1)C(=O)N[C@@H](CC(C)C)C(=O)N[C@@H](CCCNC(=N)N)C(=O)N[C@@H](CC(N)=O)C(=O)N[C@@H](CC(C)C)C(=O)N[C@H](C(=O)N1CCC[C@H]1C(=O)N[C@@H](CCCNC(=N)N)C(=O)N[C@H](C(=O)N[C@@H](CCC(=O)O)C(=O)N[C@@H](CO)C(=O)O)[C@@H](C)O)C(C)C)[C@@H](C)CC)C(C)C)[C@@H](C)CC` [LL-37]: the Survival was <1 h in [2] (Chymotrypsin 22 μg/mL, no protease inhibitor); <1 h in series [2] (Chymotrypsin 22 μg/mL, tranexamic acid 9 mg/mL); <1 h in [3] (Plasmin 22 μg/mL, no protease inhibitor); <0.75 h in series [3] (Plasmin 22 μg/mL, no protease inhibitor, Expt. 38); <4 h in series [3] (Plasmin 22 μg/mL, tranexamic acid 9 mg/mL). The parent peptide detection entry in series [3] is reported as “undetectable”.

For the compound “FAKALKALLKALKAL-NH2 [HB64, FAKALKALLKALKAL-NH2]”, the Survival in [4] (aprotinin 0.02 mg/mL) was <1 h; in series [4] (no protease inhibitor) it was <1 h; in [4] (tranexamic acid 0.80 mg/mL), <1 h; in series [2] (Chymotrypsin 25 μg/mL, aprotinin 0.02 mg/mL), <24 h; in series [2] (Chymotrypsin 25 μg/mL, no protease inhibitor), <1 h; in series [3] (Plasmin 20 μg/mL, no protease inhibitor) it was <4 h. Moreover, the Survival in series [3] (Plasmin 22 μg/mL, tranexamic acid 40 mg/mL) is <24 h; in [3] (Plasmin 25 μg/mL, no protease inhibitor), <4 h and <6 h; in series [3] (Plasmin 46 μg/mL, no protease inhibitor) it was <4 h; in series [3] (Plasmin 50 μg/mL, tranexamic acid 10 mg/mL), <6 h; in series [5] (no protease inhibitor), <24 h; in series [5] (tranexamic acid 0.80 mg/mL), <24 h. Further, in series [3] (plasmin plus tranexamic acid vs plasmin alone), the “amount of parental peptide by XIC trace compared to plasmin alone” value was “five-times greater”. Besides, the “protection of peptide (TIC and XIC traces)” value in [3] (plasmin plus tranexamic acid, 4-hour exposure) is recorded as “protected from plasmin-mediated proteolysis”. Also, the “degradation of peptide (TIC and XIC traces)” value in series [3] (plasmin, no inhibitor, 4-hour exposure) is “most of the HB64 peptide was degraded”. Also, the “parent peak in TIC traces” value in series [1] was “reduced over time”.

In the case of FALLKL-NH2 [HB168], the Survival in series [1] (aprotinin 0.02 mg/mL) is >24 h; in series [1] (no protease inhibitor), <1 h.

Take “PQEI-NH2 [P1423, tetrapeptide amidated at the carboxy terminus]”: in series [6], the “down-regulation of UVA-induced MMP-1 expression” value is reported as “able to down-regulate”. Further, the “reduction of IL-6 levels” value in series [7] (peptide 10 μg/mL) came out at 10%; in series [7] (peptide 20 μg/mL), 20%. Further, the “repression of UVB-induced IL-6 expression” value in series [7] is “reproducible repression”. In addition, in series [8], the MMP-1 induction result is “far less MMP-1 induction”. In addition, the “reduction of IL-6 levels compared to control” value in [9] (peptide 2 μg/mL) came to 24%; in series [9] (peptide 5 μg/mL), 30%; in [9] (peptide 10 μg/mL), 48%. Besides, the “down-regulation of IL-6 expression” value in series [10] is listed as “down-regulate IL-6 expression”.

As to “PQEK-NH2 [P1422, tetrapeptide amidated at the carboxy terminus]”, the “down-regulation of UVA-induced MMP-1 expression” value in series [6] is listed as “able to down-regulate”. The figures for the “reduction of IL-6 levels” value in [7] (peptide 10 μg/mL) and in series [7] (peptide 20 μg/mL) were 19% and 25%, respectively. In addition, the “repression of UVB-induced IL-6 expression” value in series [7] is “reproducible repression”. In series [8], the MMP-1 induction result is reported as “far less MMP-1 induction”. Besides, the “reduction of IL-6 levels compared to control” value in series [9] (peptide 10 μg/mL) stood at 30%. For the same compound, the “reduction of IL-6” value in series [9] (peptide concentrations lower than 10 μg/mL) was “no significant reduction”. The “down-regulation of IL-6 expression” value in [10] is recorded as “down-regulate IL-6 expression”.
